Common to all, as to assay type: cell-based
For one test, the system named is Human melanoma MeS 2.21. The test can be described thus: Cytotoxicity test (sulphorodamine B), MeS 2.21. To be noted: 24 h incubation, survival 48 h after removal. The source says: (§1) Different cell lines deriving from solid tumors were also used. • 1. Human prostate carcinoma PC3 and DU145. These cell lines were maintained in RPMI 1640 medium containing 10% FCS, 1% sodium pyruvate and 1% glutamine; • 2. Human colon adenocarcinoma LoVo. This cell line was maintained in HAM's F-12 medium, containing 10% FCS and 1% glutamine. • 3. Human ovarian carcinoma such as A2780 and A2780/Dx, sensitive and resistant to drugs, respectively (doxorubicin, taxol, etoposide, vincristine); IGROV-1 and IGROV-1/Pt, sensitive and resistant to platinum-based chemotherapy, respectively, were maintained in RPMI 1640 medium containing 10% FCS, 1% sodium pyruvate and 1% glutamine; • 4. Human melanoma MeWo and MeS 2.21, glioblastoma GBM, no small cell lung carcinomas A431, NCI—H460, osteosarcomas SAOS and U2OS were maintained in RPMI 1640 medium containing 10% FCS, 1% sodium pyruvate and 1% glutamine.
(§2) The cytotoxicity tests were carried out using NB4 or HL-60 cells in suspension (10000/well). The cells were seeded in a volume of 250 μl in 96 well plates and incubated for 24 hours at 37° C. […] The optical density was measured using a Multiskan spectrophotometer at 540 nm. […]
(§3) Cell survival was determined by incubation with ST1926 for 24 hours, 48 hours after the removal of the compound. […]

The test system of test [1] is Human prostate carcinoma PC3. In words: Cytotoxicity test (sulphorodamine B), PC3. To be noted: 24 h incubation, survival 48 h after removal, read-out: IC50.
Description: as §1, §2, §3

The subject of test [2] is Human Promyelocytic Leukaemia NB4 Cells. In words: Cyto-fluorometric cell cycle analysis, NB4. To be noted: 3 days; for G0/G1 / G2 + M / S: percentage of cell cycle phase. The procedure: To evaluate the effect of the compound according to the invention, on various phases of the cell cycle, cyto-fluorometric cell cycle analyses were performed.
HL60 or NB4 cells were seeded onto plates at a density of 150.000 cells/ml in RPMI 1640 medium containing 10% FCS, the test compound (ST 1926) was added, solubilised in 0.1% DMSO at concentrations of between 0.01 and 0.1 μM, in the presence or absence of sub-optimal doses of ATRA (5-10 nM for NB4 and 0.5 μM for HL60) in the dark and placed in an incubator for 3 days without changing the culture medium.
On the third day of treatment 500.000 cells were sampled, centrifuged at 180×g for 5 minutes, washed twice in calcium and magnesium free PBS. The cells (1×10^6/ml of fixative) were fixed for at least 1 hour in a fixation mixture comprised of acetone/methanol 1:4 v/v maintained at −20° C. and 50% of calcium and magnesium free PBS; then the cells were centrifuged, washed in calcium and magnesium free PBS, and again centrifuged and washed. The cellular precipitate was incubated for 30 minutes in the dark at room temperature with 200 μl of […] (100 μg/ml) and 200 μl of RNAse (150 KU/mg).
The samples with filtered through nylon filters (60-80 μm diameter) and analysed by cyto-fluorimeter FACScan (Becton Dickinson), acquiring 20000 events/sample, at an excitation wavelength of 488 nm and emission wavelength of 620 nm. The analysis of the percentages of the cell cycle phases was performed using a dedicated software package, Modfit v. 2.0 (Becton Dickinson).

Regarding `O=C(O)/C=C/c1ccc(-c2ccc(O)c(C34CC5CC(CC(C5)C3)C4)c2)cc1` [ST1926, E-4-(3-(1-adamantyl)-4-hydroxyphenyl)cinnamic acid], the IC50 in the test with Human melanoma MeS 2.21 turned out to be 230 nM; in test [1], 210 nM. Further, the APOPTOSIS in test [2] (NB4, 0.01 μM) came to 19.9; in test [2] (NB4, 0.02 μM), 28.4; in test [2] (NB4, 0.04 μM), 33.9; in test [2] (NB4, 0.08 μM) it was 45.0; in test [2] (NB4, 0.1 μM), 53.6. The G0/G1 in test [2] (NB4, 0.01 μM) was determined as 48.4; in test [2] (NB4, 0.02 μM), 48.2; in test [2] (NB4, 0.04 μM), 51.3; in test [2] (NB4, 0.08 μM), 41.4; in test [2] (NB4, 0.1 μM) it was 50.6. Besides, the “G2 + M” value in test [2] (NB4, 0.01 μM) turned out to be 12.8; in test [2] (NB4, 0.02 μM), 12.4; in test [2] (NB4, 0.04 μM), 13.0; in test [2] (NB4, 0.08 μM), 5.0; in test [2] (NB4, 0.1 μM) it was 3.3. Moreover, the S is reported as 38.8 in test [2] (NB4, 0.01 μM); 39.4 in test [2] (NB4, 0.02 μM); 35.7 in test [2] (NB4, 0.04 μM); 53.6 in test [2] (NB4, 0.08 μM); 46.1 in test [2] (NB4, 0.1 μM). Besides, the “effect on the cell cycle of NB4 (in words)” value in test [2] (NB4, 0.08 and 0.1 μM) is “induces growth arrest in the duplication S phase of the cycle and apoptosis”.

The record behind these values is patent US7449495B2, “Retinoid derivatives with antiangiogenic, antitumoral and proapoptotic activities” (Sigma-Tau Industrie Farmaceutiche Riunite S.p.A., priority 2001, dated 2008).
